From US20230210832A1, “METHODS FOR TREATING ALZHEIMER'S DISEASE” (priority 2020, published 2023)
Converted amounts (≈) assume the structure as drawn.

B1: Ang-2 peptide: human Ang-2 peptide (abcam; ab99482), Tie-2 receptor ligand (protein, UniProt O15123 19-496, looked up)
Angiopoietin-2: YNNFRKSMDSIGKKQYQVQHGSCSYTFLLPEMDNCRSSSSPYVSNAVQRDAPLEYDDSVQRLQVLENIMENNTQWLMKLENYIQDNMKKEMVEIQQNAVQNQTAVMIEIGTNLLNQTAEQTRKLTDVEAQVLNQTTRLELQLLEHSLSTNKLEKQILDQTSEINKLQDKNSFLEKKVLAMEDKHIIQLQSIKEEKDQLQVLVSKQNSIIEELEKKIVTATVNNSVLQKQQHDLMETVNNLLTMMSTSNSAKDPTVAKEEQISFRDCAEVFKSGHTTNGIYTLTFPNSTEEIKAYCDMEAGGGGWTIIQRREDGSVDFQRTWKEYKVGFGNPSGEYWLGNEFVSQLTNQQRYVLKIHLKDWEGNEAYSLYEHFYLSSEELNYRIHLKGLTGTAGKISSISQPGNDFSTKDGDNDKCICKCSQMLTGGWWFDACGPSNLNGMYYPQRQNTNKFNGIKWYYWKGSGYSLKATTMMIRPADF

Tests used:
[1] = tested on: Tg2576 AD model mice and WT (B6/SJL) littermates; assay: Contextual fear conditioning; format: in vivo, mouse; conditions: 1-month treatment, mean±standard deviation
Protocol: Contextual Fear Conditioning: The apparatus consisted of a transparent chamber inside an enclosure with an opening in the ceiling to allow video recordings. The chamber consisted of a steel grid floor connected to a shock generator scrambler. The test encompassed two sessions: conditioning and a context test. On the conditioning day, the mice were individually placed in the chamber and allowed to explore freely for 5 minutes during which, at the 180th second, they received a foot shock of 0.50-0.80 mA for 3 seconds through the bars of the floor. 24 hours after conditioning, the mice were individually placed back in the chamber for 4 minutes, this time with no noxious stimuli. The mice were monitored for movement and freezing behaviour was recorded using computer software (Limelight, ActiMetrics, Wilmette, Ill., USA). Exclusion criteria were set for freezing events less than 2 seconds. This test was used to determine associative working memory. We explored the animal's ability to associate an environment with a noxious event that it experienced there. […] Freezing is a species-specific response to fear, which is defined as “the absence of movement except for respiration.” This may last for seconds to minutes depending on the strength of the aversive stimulus and whether the subject is able to recall the shock.

[2] = physchem; conditions: 100% DMSO, organic solvent or mixture
[3] = mice, 26 weeks of once daily oral gavage administration; cited from earlier work
[4] = tested on: Tg2576 AD model mice and WT (B6/SJL) littermates; assay: Spontaneous alternation (Y-maze); format: in vivo, mouse; conditions: drug-treated Tg2576 mice, 1-month treatment; mean±standard deviation
Protocol: Spontaneous alternation (Y-maze): The test for novelty exploration using spatial and working memory was conducted using a symmetrical Y-maze with a grey steel bottom plate and grey Perspex® walls (Stoelting Co, Wood Dale, Ill.). Each arm of the Y-maze was 35 cm long, 5 cm wide, and 10 cm high, and the wall at the end of each arm was identified by a different colour: white, blue or red. The spatial acquisition phase comprised a one-day trial with the mice tracked while moving freely through the three arms of the Y maze during an 8-minute session. The movements were tracked by a computer tracking system (ANY-maze, Stoelting). The performance was gauged by the percentage of alternations that was calculated as the total number of alternations×100/(total number of arm entries−2). Alternation was defined as successive entries into the three arms on overlapping triplet sets. A high percentage of alternation was indicative of sustained cognition, as the animals must remember which arm was entered last to avoid re-entering it.

[5] = tested on: Human brain endothelial cells (HBEC-5i); assay: Western blot of HBEC-5i cell lysates after peptide treatment; format: cell-based; conditions: 24 hrs, Aβ peptides 10 μM, Ang-2 200 ng/ml, VEGFA-165 100 ng/ml, vs PBS-treated cells
Protocol: Human brain endothelial cells, HBEC-5i (ATCC® CRL-3245™) were cultured on 0.1% gelatin coated tissue culture plates in DMEM-F12 media (Gibco; cat. #10565-018) supplemented by 10% heat-inactivated fetal bovine serum (FBS) (Gibco; cat. #A31607-01) and 40 μg/ml endothelial growth supplement (Sigma-Aldrich; cat. #E2759). Cells were grown until they reached 70% confluency and then used for experiments.
Cell culture: Human brain endothelial cells were grown in 10 cm tissue culture plates. […] After the treatment, the medium was removed, and cells were washed with PBS and then lysed with RIPA buffer that contained protease and phosphatase inhibitors. These cells were then used to analyze different proteins of interest.
Immunoblotting analysis and co-immunoprecipitation: For western blot analysis, the fractional homogenate samples were prepared with Dithiothreitol (DTT) in the sample buffer (100 mM Tris-Cl (pH 6.8), 4% (w/v) SDS, 0.2% (w/v) bromophenol blue, 20% (v/v) glycerol and 200 mM DTT). Homogenates were electrophoresed and immunoblotted with indicated antibodies. […] The proteins in the eluate were resolved on the acrylamide gel according to standard practices. […] The signal intensities were imaged by using the Odyssey infrared image system (LICOR), and relative levels of immunoreactivity were analyzed by the Image Studio Lite software.

Molecule	freezing percentage ([1]; drug-treated Tg2576 mice)	freezing percentage ([1]; drug-treated WT (B6/SJL) mice)	solubility [2]	no-observed-adverse-effect-levels (NOAELs) [3]	percentage of alternation [4]	expression of VEGFR2 [5]
CNC(=O)c1ccccc1Sc1ccc2c(/C=C/c3ccccn3)n[nH]c2c1 [Axitinib]	14.4±7.3%	17.74±14.4%	40 mg/mL (≈ 103 mM)	< 10 mg/kg/day	–	–
CCN(CC)CCNC(=O)c1c(C)[nH]c(/C=C2\C(=O)Nc3ccc(F)cc32)c1C [Sunitinib]	10.9±5.8%	25.4±19.4%	30 mg/mL (≈ 75.3 mM)	–	49.3±12.1%	–
Aβ1-42 peptide: Aβ1-42 peptide (NovoPrep synthetic peptide), predominantly found in plaques	–	–	–	–	–	did not exert a similar effect
B1	–	–	–	–	–	slight increase
